Results from patent US20230101747A1 (Schrödinger, Inc., priority 2019, published 2023).

Target: T1, Full length human CDC7 protein co-expressed with DBF4 (Homo sapiens, UniProt O00311)
T1 construct: Full length human CDC7 protein co-expressed with DBF4; purchased SignalChem (China)
Assay: CDC7 kinase biochemical assay (ADP-Glo, PDKtide substrate)
Conditions: 0.1 nM CDC7/DBF4, 1 uM ATP, 10 uM PDKtide, 4 h; read-out: CDC7 ADP-Glo PDKtide IC50
Protocol: CDC7 Kinase Biochemical Assay Protocol:
Full length human CDC7 protein co-expressed with DBF4 was purchased from SignalChem (China). CDC7 kinase activity was determined with PDKtide (SignalChem) as a substrate and by measuring ADP production using the ADP-Glo™ Kinase Assay kit (Promega) following the manufacturers instructions. The kinase reaction was performed using the following conditions: Buffer: 40 mM Tris pH 7.5, 20 mM MgCl2, 0.1 mg/ml BSA and 50 uM DTT. Final reaction mix contained 0.1 nM CDC7/DBF4, 1 uM ATP and 10 uM PDKtide. The kinase reaction time was 4 h. The ADP-Glo signal was measured using an EnVision plate reader (PerkinELmer).
Percent inhibition of CDC7 kinase activity was calculated based on the following formula: […]
SSample: the signal of compounds SHigh ctrl: the signal of high control (DMSO) SLow Ctrl: the signal of low control (positive control CDC7 inhibitor)

T1 sequence (O00311 whole entry): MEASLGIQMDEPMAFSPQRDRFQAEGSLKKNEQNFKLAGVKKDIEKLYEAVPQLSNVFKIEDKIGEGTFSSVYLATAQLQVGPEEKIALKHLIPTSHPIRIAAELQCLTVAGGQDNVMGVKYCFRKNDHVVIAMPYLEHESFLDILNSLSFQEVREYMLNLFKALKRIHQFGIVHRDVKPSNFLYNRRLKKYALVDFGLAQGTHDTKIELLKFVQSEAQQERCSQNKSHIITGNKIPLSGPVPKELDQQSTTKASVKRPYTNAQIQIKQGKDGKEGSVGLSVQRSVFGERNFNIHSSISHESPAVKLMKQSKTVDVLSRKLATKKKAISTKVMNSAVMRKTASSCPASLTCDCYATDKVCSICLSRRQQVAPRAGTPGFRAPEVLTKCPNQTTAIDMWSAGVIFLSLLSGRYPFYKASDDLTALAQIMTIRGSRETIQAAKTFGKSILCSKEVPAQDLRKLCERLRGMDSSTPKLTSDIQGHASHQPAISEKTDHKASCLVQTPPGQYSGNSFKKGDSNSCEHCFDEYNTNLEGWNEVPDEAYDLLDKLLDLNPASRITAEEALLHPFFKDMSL
T1 sequence (Q9UBU7 whole entry partner): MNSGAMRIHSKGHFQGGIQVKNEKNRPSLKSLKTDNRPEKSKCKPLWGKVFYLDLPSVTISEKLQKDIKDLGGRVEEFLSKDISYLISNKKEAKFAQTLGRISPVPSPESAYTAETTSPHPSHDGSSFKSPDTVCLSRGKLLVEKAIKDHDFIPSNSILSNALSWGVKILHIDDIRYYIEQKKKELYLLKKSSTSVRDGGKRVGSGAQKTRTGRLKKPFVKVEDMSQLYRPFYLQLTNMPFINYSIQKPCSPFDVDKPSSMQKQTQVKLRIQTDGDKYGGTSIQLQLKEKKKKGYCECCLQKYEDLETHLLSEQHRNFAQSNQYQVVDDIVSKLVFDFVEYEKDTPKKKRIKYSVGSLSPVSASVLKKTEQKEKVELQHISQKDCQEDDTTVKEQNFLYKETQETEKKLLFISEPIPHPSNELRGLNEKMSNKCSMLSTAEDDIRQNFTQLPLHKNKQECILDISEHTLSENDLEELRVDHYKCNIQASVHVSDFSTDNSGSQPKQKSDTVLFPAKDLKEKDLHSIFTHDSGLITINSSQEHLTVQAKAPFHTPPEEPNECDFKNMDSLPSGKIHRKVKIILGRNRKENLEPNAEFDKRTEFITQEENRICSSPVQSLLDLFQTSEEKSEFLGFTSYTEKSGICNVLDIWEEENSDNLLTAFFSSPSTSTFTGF

| IC50 [nM] | SMILES |
| --- | --- |
| > 10 | CC1(C)NC(=O)c2sc(-c3ccncn3)c3c2N1CCO3 [Compound 5, 6,6-Dimethyl-2-(pyrimidin-4-yl)-4,5,6,7-tetrahydro-8H-3-oxa-1-thia-5a,7-diazaacenaphthylen-8-one] |
| < 1 | O=C1NC(C2CC(F)(F)C2)CN2CCOc3c(-c4cn[nH]c4)sc1c32 (single isomer, unassigned) [Compound 111, (R or S)-7-(3,3-difluorocyclobutyl)-2-(1H-pyrazol-4-yl)-4,5,7,8-tetrahydro-3-oxa-1-thia-5a,8-diazabenzo[cd]azulen-9(6H)-one] |
| < 1 | CC1(C)NC(=O)c2sc(-c3ccncc3)c3c2N1CCO3 [Compound 2, 6,6-dimethyl-2-(pyridin-4-yl)-4,5,6,7-tetrahydro-8H-3-oxa-1-thia-5a,7-diazaacenaphthylen-8-one] |
| < 1 | C[C@H]1CN2CCOc3c(-c4ccncc4)sc(c32)C(=O)N1 [Compound 15, (S)-7-methyl-2-(pyridin-4-yl)-4,5,7,8-tetrahydro-3-oxa-1-thia-5a,8-diazabenzo[cd]azulen-9(6H)-one] |
| < 1 | C[C@H]1CN2CCOc3c(-c4ccnc5[nH]ccc45)sc(c32)C(=O)N1 [Compound 18, (S)-7-methyl-2-(1H-pyrrolo[2,3-b]pyridin-4-yl)-4,5,7,8-tetrahydro-3-oxa-1-thia-5a,8-diazabenzo[cd]azulen-9(6H)-one] |
| < 1 | CNC[C@H]1CN2CCOc3c(-c4cn[nH]c4)sc(c32)C(=O)N1 [Compound 47, (S)-7-((methylamino)methyl)-2-(1H-pyrazol-4-yl)-4,5,7,8-tetrahydro-3-oxa-1-thia-5a,8-diazabenzo[cd]azulen-9(6H)-one] |
| > 10 | Cc1cnn(C[C@H]2CNC(=O)c3sc(-c4cn[nH]c4)c4c3N2CCO4)c1 [Compound 42, (R)-6-((4-methyl-1H-pyrazol-1-yl)methyl)-2-(1H-pyrazol-4-yl)-4,5,7,8-tetrahydro-3-oxa-1-thia-5a,8-diazabenzo[cd]azulen-9(6H)-one] |
| < 1 | C[C@H]1CN2C(=O)COc3c(-c4cn[nH]c4)sc(c32)C(=O)N1 [Compound 20, (S)-7-methyl-2-(1H-pyrazol-4-yl)-7,8-dihydro-3-oxa-1-thia-5a,8-diazabenzo[cd]azulene-5,9(4H,6H)-dione] |
| < 1 | O=C1N[C@@H](C2CCOCC2)CN2CCOc3c(-c4cn[nH]c4)sc1c32 [Compound 65, (S)-2-(1H-pyrazol-4-yl)-7-(tetrahydro-2H-pyran-4-yl)-4,5,7,8-tetrahydro-3-oxa-1-thia-5a,8-diazabenzo[cd]azulen-9(6H)-one] |
| < 1 | CNC[C@H]1CNC(=O)c2sc(-c3cn[nH]c3)c3c2N1CCO3 [Compound 37, (S)-6-((methylamino)methyl)-2-(1H-pyrazol-4-yl)-4,5,7,8-tetrahydro-3-oxa-1-thia-5a,8-diazabenzo[cd]azulen-9(6H)-one] |
| < 1 | C[C@H]1CNC(=O)c2sc(-c3cn[nH]c3)c3c2N1CCO3 [Compound 25, (S)-6-methyl-2-(1H-pyrazol-4-yl)-4,5,7,8-tetrahydro-3-oxa-1-thia-5a,8-diazabenzo[cd]azulen-9(6H)-one] |
| < 1 | CC1(C)NC(=O)c2sc(-c3cn[nH]c3)c3c2N1CCO3 [Compound 12, 6,6-dimethyl-2-(1H-pyrazol-4-yl)-4,5,6,7-tetrahydro-8H-3-oxa-1-thia-5a,7-diazaacenaphthylen-8-one] |
| > 10 | Cc1ccnn1C[C@H]1CNC(=O)c2sc(-c3cn[nH]c3)c3c2N1CCO3 [Compound 62, (R)-6-((5-methyl-1H-pyrazol-1-yl)methyl)-2-(1H-pyrazol-4-yl)-4,5,7,8-tetrahydro-3-oxa-1-thia-5a,8-diazabenzo[cd]azulen-9(6H)-one] |

More lines, now with the values behind:

| SMILES | IC50 [nM] |
| --- | --- |
| COC1CN(C[C@H]2CN3CC(F)(F)Cc4c(-c5cn[nH]c5)sc(c43)C(=O)N2)C1 [Compound 141, (S)-4,4-difluoro-7-((3-methoxyazetidin-1-yl)methyl)-2-(1H-pyrazol-4-yl)-4,5,7,8-tetrahydro-3H-1-thia-5a,8-diazabenzo[cd]azulen-9(6H)-one] | 1 to 10 |
| Cc1n[nH]cc1-c1sc2c3c1CC(F)(F)CN3C[C@H]([C@H]1CCCO1)NC2=O (single isomer, unassigned) [Compound 119] | < 1 |
| CC1(C)NC(=O)c2sc(-c3c[nH]c4ncncc34)c3c2N1CCO3 [Compound 4, 6,6-dimethyl-2-(7H-pyrrolo[2,3-d]pyrimidin-5-yl)-4,5,6,7-tetrahydro-8H-3-oxa-1-thia-5a,7-diazaacenaphthylen-8-one] | 1 to 10 |
| O=C1N[C@@H](C2CCC2)[C@H](CO)N2CCOc3c(-c4cn[nH]c4)sc1c32 [Compound 92, (9R,10S)-10-cyclobutyl-9-(hydroxymethyl)-3-(1H-pyrazol-4-yl)-5-oxa-2-thia-8,11-diazatricyclo[6.4.1.0^4,13]trideca-1(13),3-dien-12-one] | < 1 |
| CC1(C)NC(=O)c2sc(-c3ccnc4[nH]ncc34)c3c2N1CCO3 [Compound 8, 6,6-dimethyl-2-(1H-pyrazolo[3,4-b]pyridin-4-yl)-4,5,6,7-tetrahydro-8H-3-oxa-1-thia-5a,7-diazaacenaphthylen-8-one] | 1 to 10 |
| O=C1NCC(C2CCOCC2)N2CCOc3c(-c4cn[nH]c4)sc1c32 (centres unmarked) [Compound 26, 2-(1H-pyrazol-4-yl)-6-(tetrahydro-2H-pyran-4-yl)-4,5,7,8-tetrahydro-3-oxa-1-thia-5a,8-diazabenzo[cd]azulen-9(6H)-one] | < 1 |
| O=C1NC(C2CC(F)(F)C2)CN2CC(F)Cc3c(-c4cn[nH]c4)sc1c32 (single isomer, unassigned) [Compound 129, 7-(3,3-difluorocyclobutyl)-4-fluoro-2-(1H-pyrazol-4-yl)-4,5,7,8-tetrahydro-3H-1-thia-5a,8-diazabenzo[cd]azulen-9(6H)-one] | < 1 |
| O=C1NC([C@H]2[C@@H]3COC[C@@H]32)CN2CC(F)(F)Cc3c(-c4cn[nH]c4)sc1c32 (single isomer, unassigned) [Compound 123] | < 1 |
| O=C1NCCN2c3c1sc(-c1cn[nH]c1)c3OC[C@H]2CNC(=O)C1CCC1 [Compound 58, (R)—N-((9-oxo-2-(1H-pyrazol-4-yl)-4,5,6,7,8,9-hexahydro-3-oxa-1-thia-5a,8-diazabenzo[cd]azulen-5-yl)methyl)cyclobutanecarboxamide] | < 1 |
| O=C1N[C@H](C23CCC(CC2)O3)CN2CC(F)(F)Cc3c(-c4cn[nH]c4)sc1c32 (single isomer, unassigned) [Compound 122] | > 10 |
| O=C1NC[C@H](COCc2ccccc2)N2CCOc3c(-c4cn[nH]c4)sc1c32 [Compound 35, (R)-6-((benzyloxy)methyl)-2-(1H-pyrazol-4-yl)-4,5,7,8-tetrahydro-3-oxa-1-thia-5a,8-diazabenzo[cd]azulen-9(6H)-one] | 1 to 10 |
| CC1(C)NC(=O)c2sc(-c3c[nH]c4ncccc34)c3c2N1CCO3 [Compound 9, 6,6-dimethyl-2-(1H-pyrrolo[2,3-b]pyridin-3-yl)-4,5,6,7-tetrahydro-8H-3-oxa-1-thia-5a,7-diazaacenaphthylen-8-one] | 1 to 10 |
| CC1(C)NC(=O)c2sc(-c3ccnc(N)n3)c3c2N1CCO3 [Compound 11, 2-(2-aminopyrimidin-4-yl)-6,6-dimethyl-4,5,6,7-tetrahydro-8H-3-oxa-1-thia-5a,7-diazaacenaphthylen-8-one] | 1 to 10 |
| O=C1NC(C2CCCCO2)CN2CCCc3c(-c4cn[nH]c4)sc1c32 (single isomer, unassigned) [Compound 109] | > 10 |
| O=C1N[C@H](C2CCCCO2)CN2CC(F)(F)Cc3c(-c4cn[nH]c4)sc1c32 (single isomer, unassigned) [Compound 137] | > 10 |
| O=C1N[C@@H](C2CCCCO2)CN2CC(F)(F)Cc3c(-c4cn[nH]c4)sc1c32 (single isomer, unassigned) [Compound 139] | < 1 |
| O=C1NC(C2CCCCO2)CN2CCCc3c(-c4cn[nH]c4)sc1c32 (single isomer, unassigned) [Compound 108] | < 1 |
| O=C1N[C@H](C2CCCCO2)CN2CC(F)(F)Cc3c(-c4cn[nH]c4)sc1c32 (single isomer, unassigned) [Compound 138] | 1 to 10 |
| O=C1NC[C@@H](CN2CCC2)N2CCOc3c(-c4cn[nH]c4)sc1c32 [Compound 46, (S)-6-(azetidin-1-ylmethyl)-2-(1H-pyrazol-4-yl)-4,5,7,8-tetrahydro-3-oxa-1-thia-5a,8-diazabenzo[cd]azulen-9(6H)-one] | 1 to 10 |
| CC(C)(O)C[C@H]1CN2CC(F)(F)Oc3c(-c4cn[nH]c4)sc(c32)C(=O)N1 [Compound 116, (S)-4,4-difluoro-7-(2-hydroxy-2-methylpropyl)-2-(1H-pyrazol-4-yl)-4,5,7,8-tetrahydro-3-oxa-1-thia-5a,8-diazabenzo[cd]azulen-9(6H)-one] | < 1 |
| O=C1NC(C2CC(F)(F)C2)CN2CC(F)Cc3c(-c4cn[nH]c4)sc1c32 (single isomer, unassigned) [Compound 128, 7-(3,3-difluorocyclobutyl)-4-fluoro-2-(1H-pyrazol-4-yl)-4,5,7,8-tetrahydro-3H-1-thia-5a,8-diazabenzo[cd]azulen-9(6H)-one] | 1 to 10 |

Same assay, conditions: CDC7 ADP-Glo PDKtide IC50, 0.1 nM CDC7/DBF4, 1 uM ATP, 10 uM PDKtide, 4 h

| SMILES | IC50 [nM] |
| --- | --- |
| O=C1N[C@H](C2CCC2)CN2C(=O)COc3c(-c4cn[nH]c4)sc1c32 [Compound 21, (R)-7-cyclobutyl-2-(1H-pyrazol-4-yl)-7,8-dihydro-3-oxa-1-thia-5a,8-diazabenzo[cd]azulene-5,9(4H,6H)-dione] | 1 to 10 |
